Measurements taken from the supplement of paper PMC10307832.

Columns and labels:
Assay in all cases: relative viability (nuclei count vs DMSO), 5 days (fraction); higher = more cells survive
NPK76-II-72-1 = compound: CC1CC(=O)N(C2=CN=C(N=C2N1C3CCCC3)NC4=C(C=C(C=C4)C(=O)NC5CCN(CC5)C)OC)C [NPK76-II-72-1]
Method in brief: (§1)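 MetaXpress counted nuclei in 4× images of lung cancer cell lines that had been fixed, permeabilised and Hoechst-stained in one step. Before that, cells in 1536-well plates were kept overnight at 37 °C, pinned with five √10-spaced library-drug doses on vehicle-anchored plates, and cultured 5 days without medium change. Viability takes treated-well nuclei over vehicle-well nuclei and uses the median across plates. Plates were accepted only at control CV below 25% and at least one doubling.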

BI-2536 = compound: CC[C@@H]1C(=O)N(C)c2cnc(Nc3ccc(C(=O)NC4CCN(C)CC4)cc3OC)nc2N1C1CCCC1 [BI-2536]
Method in brief: as §1

[1] = compound: CC1CC(=O)N(C2=CN=C(N=C2N1C3CCCC3)NC4=C(C=C(C=C4)C(=O)NC5CCN(CC5)C)OC)C [NPK76-II-72-1] + CS(=O)(=O)N1CCN(Cc2cc3nc(-c4cccc5[nH]ncc45)nc(N4CCOCC4)c3s2)CC1 [Pictilisib] (partner 1 µM)
Method in brief: (§2)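 A single step with final 0.05% Triton X-100, 1% formaldehyde and 1 ug/ml Hoechst fixed the cells and stained nuclei 5 days after treatment. Lung cancer cell lines in 1536-well plates had been treated by pin tool the day after seeding with one drug alone or a fixed anchor-drug dose plus five library-drug doses (not always all listed) in √10 steps, and nuclei were counted on 4× images. Relative viability is the ratio of nuclei in treated wells to nuclei in vehicle wells, taken as the median of duplicate plates.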

[2] = compound: CC1CC(=O)N(C2=CN=C(N=C2N1C3CCCC3)NC4=C(C=C(C=C4)C(=O)NC5CCN(CC5)C)OC)C [NPK76-II-72-1] + Cc1nc(NC(=O)N2CCC[C@H]2C(N)=O)sc1-c1ccnc(C(C)(C)C(F)(F)F)c1 [Alpelisib] (partner 2 µM)
Method in brief: as §2

Cell Line UMC-11 has a relative viability (NPK76-II-72-1; 0.01 µM) of 0.93, a relative viability (NPK76-II-72-1; 0.03162 µM) of 0.95 and a relative viability (NPK76-II-72-1; 0.1 µM) of 1.01. The relative viability (NPK76-II-72-1; 0.3162 µM) was 0.909, the relative viability (NPK76-II-72-1; 1 µM) was 0.931 and the relative viability (BI-2536; 0.01 µM) was 0.923. The relative viability (BI-2536; 0.03162 µM) was 0.624, the relative viability (BI-2536; 0.1 µM) was 0.175 and the relative viability (BI-2536; 0.3162 µM) was 0.205. It also gave a relative viability (BI-2536; 1 µM) of 0.2, a relative viability ([1]; first compound 0.01 µM) of 0.75 and a relative viability ([1]; first compound 0.03162 µM) of 0.707. It also gave a relative viability ([1]; first compound 0.1 µM) of 0.881, a relative viability ([1]; first compound 0.3162 µM) of 0.806 and a relative viability ([1]; first compound 1 µM) of 0.778. It also gave a relative viability ([2]; first compound 0.01 µM) of 0.967, a relative viability ([2]; first compound 0.03162 µM) of 0.994 and a relative viability ([2]; first compound 0.1 µM) of 1.02. For the same cell line, the relative viability ([2]; first compound 0.3162 µM) was 0.835 and the relative viability ([2]; first compound 1 µM) was 0.978.
